# Data: patent US20180055050A1 (priority 2016, published 2018)
# Test system: Rice Blast
# Set-up: species or system Magnaporthe oryzae
# Details: in vivo
structure (smiles),measurement,value
COc1ccnc(C(=O)N[C@H]2COC(=O)[C@H](Cc3ccccc3)[C@@H](OC(=O)C(C)C)[C@H](C)OC2=O)c1OCOC(=O)C(C)C [Compound I],Flag Leaf (% INFECT),B (key: A: 1-25; B: 26-50; C: 51-75; D: 76-100; E: Not tested)
same,Panicles (% INCID),B (key: A: 1-25; B: 26-50; C: 51-75; D: 76-100; E: Not tested)
same,Panicles (% INFECT),B (key: A: 1-25; B: 26-50; C: 51-75; D: 76-100; E: Not tested)
